According to patent US20260250312A1, “ANTIBACTERIAL COMPOUNDS ELIMINATING DORMANT BACTERIAL CELLS” (UNIVERSITÉ D'AIX-MARSEILLE, priority 2022, published 2026):
Several values for one entry are separate records, joined by “and”; a condition that tells them apart may be missing. Equal values may be shown once.

Assays:
[1] = system: Staphylococcus aureus (ATCC25923); assay: Microdilution MIC assay (CLSI-based), S. aureus; type: cell-based; details: Staphylococcus aureus, ATCC25923, 20 h, 20 hours incubation at 35-37° C., MHB; read-out: Minimum inhibitory concentration S. aureus ATCC25923
Experimental: (§1) The antibacterial activity of compounds was measured using a standard microdilution assay based on the Clinical and Laboratory Standards Institute (CLSI) guidelines. This method was slightly modified. Indeed, assay volumes were increased to 200 μL to improve reproducibility. The chemical compounds to be tested were in the form of salts for biological testing.
(§2) Bacteria tested: Antibacterial activities of the compounds were tested on Staphylococcus aureus (ATCC25923), Enterococcus faecalis (ATCC29212), Escherichia coli ([…]) and Pseudomonas aeruginosa (ATCC27853).
(§3) Preparation of the Preculture: Mueller Hinton Agar plates were inoculated with frozen biological strain in order to obtain separate colonies and the plates were incubated during 24 h at 35-37° C. 3 colonies of similar aspect were picked out, resuspended in 5 mL of fresh Mueller Hinton broth 1× (MHB) and incubated with shaking (160 rpm) at 35-37° C. overnight.
(§4) 0.1 mL of bacteria in exponential phase were suspended in 9.9 mL of MHB (1:100 dilution). 0.1 mL of the 1:100 dilution were dispensed into the wells of microplates containing 0.1 ml of serial compounds dilutions to yield ca. 5×10^5 CFU/mL. In parallel, the stocks solutions of chemical compounds were first diluted in appropriate solvent to a final concentration of 5 mg/mL. 8 μL were dispended into the first wells of the microplates containing 0.1 ml of sterile broth and a 0.5 cascade dilution was performed in MHB from 0.2 mg/mL. One control was made for each strain tested. […] Tests were performed in triplicate.
(§5) Reading of the Results: After incubation, the filter was replaced with a transparent film, and an optical density reading was then taken in an iEMS plate spectrophotometer at 620 nm. Calculation of the minimum inhibitory concentration (MIC) was performed.

[2] = system: Escherichia coli (ATCC28922); assay: Microdilution MIC assay (CLSI-based), E. coli; type: cell-based; details: Escherichia coli, ATCC28922, 20 h, 20 hours incubation at 35-37° C., MHB; read-out: Minimum inhibitory concentration E. coli ATCC28922
Experimental: as §1, §2, §3, §4, §5

CHO-K1 cells = assay: WST1 cytotoxicity test; type: cell-based, Chinese hamster; details: Cricetulus griseus, CHO-K1, 24 h, WST1, 24 hours at 37° C.; read-out: IC50 CHO
Text: Cytotoxicity: The test WST1 was used to measure the cytotoxic activity of the compounds of the invention. The test WST1 is a colorimetric test allowing to measure the viability and the degree of cell proliferation. It is based on cleavage of the colorless tetrazolium salts WST-1 (4—[3-(4-iodophenyl)-2-(4-nitrophenyl)-2H-5-tetrazolio]-1,3-benzene disulfonate) with mitochondrial dehydrogenases to the yellow-colored formazan derivative, which may be quantified by spectrophotometry at 420-480 nm. The WST1 test was performed on Chinese hamster ovary (CHO) cells. The CHO-K1 cells (ATCC, USA) were kept in culture in McCoy's 5A medium supplemented with 10% fetal calf serum, 2 mM of L-glutamine and a mixture of penicillin-streptomycin (100 U/ml: 10 μg/mL). The culture was incubated at 37° C. under an atmosphere enriched in CO2 (5%), and subcultured every two days. The cells were transferred into 96-well plates (25,000 cells/mL) in whole McCoy's 5A medium, and maintained for 24 hours at 37° C. under a humid atmosphere enriched in CO2 (5%). Increasing concentrations of tested compounds were added to the wells, each compound was tested in replicates and 8 growth controls containing the cells in the medium alone were included in each series of tests. After 24 hours at 37° C. (5% CO2), the culture medium was removed, the cells were rinsed in phosphate buffer (PBS) and 50 μL of PBS containing 10% of reagent WST1 were added to each well. After 20 minutes of incubation at 37° C., the results were read by spectrophotometry at 450 nm. The results are expressed in dose-response relationships, modeled by nonlinear regression analysis using the TableCurve software.
Cytotoxicity: The same WST1 test as described in Example 2 above was used.

[3] = system: Enterococcus faecalis (ATCC29212); assay: Microdilution MIC assay (CLSI-based), E. faecalis; type: cell-based; details: Enterococcus faecalis, ATCC29212, 20 h, 20 hours incubation at 35-37° C., MHB; read-out: Minimum inhibitory concentration E. faecalis ATCC29212
Experimental: as §1, §2, §3, §4, §5

[4] = system: Pseudomonas aeruginosa (ATCC27853); assay: Microdilution MIC assay (CLSI-based), P. aeruginosa; type: cell-based; details: Pseudomonas aeruginosa, ATCC27853, 20 h, 20 hours incubation at 35-37° C., MHB; read-out: Minimum inhibitory concentration P. aeruginosa ATCC27853
Experimental: as §1, §2, §3, §4, §5

SMILES | MIC [1] | MIC [2] | IC50 (CHO-K1 cells) | MIC [3] | MIC [4]
CC[C@@H](C)[C@H](NC(=O)CC[C@@H](C)[C@H]1CCC2C3C(CC[C@@]21C)[C@@]1(C)CC[C@H](NCCCNCCCN)C[C@H]1C[C@H]3O)C(=O)OC (stereo partly drawn) [Compound S050, methyl (2S,3R)-2-((4R)-4-((3S,5S,7R,10S,13R,17R)-3-((3-((3-aminopropyl)amino)propyl)amino)-7-hydroxy-10,13-dimethylhexadecahydro-1H-cyclopenta[a]phenanthren-17-yl)pentanamido)-3-methylpentanoate] | 3.12 µM and 2 µg/mL | 12.5 µM and 8 µg/mL | 10.5 µM and 6.63 µg/mL | 25 µM and 16 µg/mL | 50 µM and 32 µg/mL
COC(=O)[C@H](NC(=O)CC[C@@H](C)[C@H]1CCC2C3C(C[C@H](O)[C@@]21C)[C@@]1(C)CC[C@H](NCCCNCCCCNCCCN)C[C@H]1C[C@H]3O)C(C)C (stereo partly drawn) [Compound S058, methyl ((4R)-4-((3S,5S,7R,10S,12S,13R,17R)-3-((3-((4-((3-aminopropyl)amino)butyl)amino)propyl)amino)-7,12-dihydroxy-10,13-dimethylhexadecahydro-1H-cyclopenta[a]phenanthren-17-yl)pentanoyl)-D-valinate] | 12.5 µM and 8 µg/mL | 100 µM and 64 µg/mL | 6.55 µM and 4.63 µg/mL | 100 µM and 64 µg/mL | 50 µM and 32 µg/mL
COC(=O)[C@H](NC(=O)CC[C@@H](C)[C@H]1CCC2C3C(CC[C@@]21C)[C@@]1(C)CC[C@H](NCCCCCCN)C[C@H]1C[C@H]3O)C(C)C (stereo partly drawn) [Compound S023, methyl ((4R)-4-((3S,5S,7R,10S,13R,17R)-3-((6-aminohexyl)amino)-7-hydroxy-10,13-dimethylhexadecahydro-1H-cyclopenta[a]phenanthren-17-yl)pentanoyl)-D-valinate] | 50 µM and 32 µg/mL | 100 µM and 64 µg/mL | 48.5 µM and 29.3 µg/mL | 100 µM and 64 µg/mL | > 200 µM and > 120 µg/mL
COC(=O)[C@@H](Cc1ccccc1)NC(=O)CC[C@@H](C)[C@H]1CCC2C3C(CC[C@@]21C)[C@@]1(C)CC[C@H](NCCCNCCCNCCCN)C[C@H]1C[C@H]3O (stereo partly drawn) [Compound S022, methyl ((4R)-4-((3S,5S,7R,10S,13R,17R)-3-((3-((3-((3-aminopropyl)amino)propyl)amino)propyl)amino)-7-hydroxy-10,13-dimethylhexadecahydro-1H-cyclopenta[a]phenanthren-17-yl)pentanoyl)-D-phenylalaninate] | 12.5 µM and 8 µg/mL | 12.5 µM and 8 µg/mL | 17.1 µM and 12.4 µg/mL | 25 µM and 16 µg/mL | 12.5 µM and 8 µg/mL
COC(=O)[C@H]1CCCN1C(=O)CC[C@@H](C)[C@H]1CCC2C3C(CC[C@@]21C)[C@@]1(C)CC[C@H](NCCCNCCCN)C[C@H]1C[C@H]3O (stereo partly drawn) [Compound S045, methyl ((4R)-4-((3S,5S,7R,10S,13R,17R)-3-((3-((3-aminopropyl)amino)propyl)amino)-7-hydroxy-10,13-dimethylhexadecahydro-1H-cyclopenta[a]phenanthren-17-yl)pentanoyl)-D-prolinate] | 2 µg/mL and 3.13 µM | 4 µg/mL and 6.25 µM | 7.77 µg/mL and 12.6 µM | 4 µg/mL and 6.25 µM | 16 µg/mL and 25 µM
COC(=O)[C@@H](NC(=O)CC[C@@H](C)[C@H]1CCC2C3C(CC[C@@]21C)[C@@]1(C)CC[C@H](NCCCN(C)CCCN)C[C@H]1C[C@H]3O)C(C)C (stereo partly drawn) [Compound S026, methyl ((4R)-4-((3S,5S,7R,10S,13R,17R)-3-((3-((3-aminopropyl)(methyl)amino)propyl)amino)-7-hydroxy-10,13-dimethylhexadecahydro-1H-cyclopenta[a]phenanthren-17-yl)pentanoyl)-L-valinate] | 25 µM and 16 µg/mL | 25 µM and 16 µg/mL | 11.4 µM and 7.2 µg/mL | 50 µM and 32 µg/mL | 200 µM and 126 µg/mL
